A word on the inhibition: it is the share of the control response that was lost under treatment.

Molecules are shown by their SMILES.

One assay relates to ileum. Description: Smooth muscle effects: CaCl2 induced contractions of ileum. To be noted: Cavia porcellus, guinea pig ileum, DMSO effect subtracted, read-out: Percentage Inhibition of CaCl2 Induced Contractions. On the set-up: species or system Guinea pigs. The method, then: (§1) The compounds were assessed for their ability to stabilize mast cell membranes in vitro. Mast cells treated with the compounds and un-treated mast cells were stimulated to release histamine. A reduction in histamine release by the treated cells compared to the untreated cells indicates stabilisation of the membrane. The compounds were assessed for their ability to relax smooth muscle in vitro. Intestinal smooth muscle was stimulated to contract, using calcium chloride and subsequently treated with the compounds, relaxation of the contraction was measured for each compound. The effects of the compounds were also studied on relaxation of guinea-pig tracheal muscle. In the rat paw oedema test, the drugs were administered systemically prior to inducing inflammation by the injection of carageenan below the plantar aponeurosis of the hind paw. The volume of the paw was determined both before and after treatment as an index of oedema. In the mouse ear oedema test, the drugs were administered topically prior to inducing inflammation by the topical application of arachidonic acid. The width of the ear was determined both before and after treatment as an index of oedema.
Guinea pigs (350 g approx.), of either sex, were killed in an atmosphere of saturated CO2. The abdomen was opened by a mid-line incision and the small intestine was removed. The trachea was removed and sectioned between the cartilage rings, which were then split through.
Segments of ileum (1-1.5 cm) were suspended in a high potassium, no calcium Krebs buffer (NaCl 160.44 mM); KCl 45 mM; MgCl2 0.54 mM; NaH2PO4 0.89 mM; NaH2CO3 24.9 mM; Glucose 11.1 mM). Tracheal sections were suspended in normal Krebs buffer (NaCl […]; KCl 4.7 mM; CaCl2 2.5 mM; MgCl2 0.54 mM; NaH2PO4 0.89 mM; NaHCO3 24.9 mM; Glucose 11.1 mM). The solutions were maintained at 37° C. by a jacketed organ bath and gassed with 95% O2 and 5% CO2. The tissues were anchored by thread to the bottom of the organ bath and suspended from force displacement transducers under a resting tension of 1 g approx. in the case of ileum and 4 g approx. in the case of trachea. Isotonic contractions were recorded using a MacLab/4e system in conjunction with the Chart 3.3.1 software package. Surplus tissue was stored at 4° C. in Krebs buffer, for a maximum of 48 hours.
Four segments of tissue were suspended and observed concurrently. Contractions were initiated by the addition of 25 μl of 1M CaCl2 (a final concentration of 2.5 mM). The contractions stabilized with time, 10-15 min, and could be maintained for up to 45 min. from the addition of the CaCl2. The tracheal sections were allowed to develop spontaneous resting tension over a period of 30 mins.
Stock solutions of drug were prepared at 10^−3M in 50% (v/v) DMSO. These were diluted to give; 10^−4M in 5% (v/v) DMSO and 10^−5M in 0.5% (v/v) DMSO. In cases of poor solubility the 10^−3M stock was made up in higher concentrations of DMSO. Solvent ‘blank’ solutions were prepared containing 50%, 5% and 0.5% (v/v) DMSO (or as appropriate). […] A second cumulative dose-response assay was carried out using DMSO ‘blank’ solutions only.
Each drug was tested, in duplicate, on at least three different animals (n=3). The results were expressed as percentage inhibition of the CaCl2 induced contraction in the case of ideal tissue and percentage relaxation in the case of tracheal tissue, for each tissue, at each concentration of drug in DMSO. The effect of DMSO, for each tissue at each concentration, was subtracted from the effect of the drug in DMSO, to give the effect of the drug alone. A log dose vs. response curve was plotted for each drug using the mean and the standard error of the mean for the cumulated results.

The next assay relates to mouse ear oedema. Description: Mouse ear oedema model (arachidonic acid induced). The format is in vivo, Laca mice. To be noted: 300 μg per ear topically 30 min prior to 400 μg arachidonic acid; 1 hour after arachidonic acid; n=4. The method, then:
as §1
The mouse ear oedema model was performed using Laca mice (25-35 g), of either sex. The animals were sedated with fentanyl/fluanisone (Hypnorm, Janssen). One ear was treated by the topical application of one of a range of test compounds, indomethacin or dexamethasone (all at 300 μg ear in acetone) drug. After 30 min, oedema was induced by the topical application of arachidonic acid (10 μl at […] in acetone). The thickness of each ear was measured, both before and 60 min after the induction of oedema, using a micrometer screw gauge. Ear oedema was calculated by comparing the ear width before and after induction of oedema and expressed as percentage normal.
Responses of the mouse ear to single doses of a range of compounds compared to the response to indomethacin and dexamethasone, each at a dose of 300 μg per ear administered topically 30 min prior to administration of 400 μg of arachidonic acid. Values are expressed as the percentage increase in ear thickness 1 hour after administration of arachidonic acid (all n=4, solvent controls (n=8)).

Another assay has as its system mast cells. Nature of the assay: Histamine release assay (compound 48/80 stimulated mast cells). The class given is cell-based, Wistar rats. As to conditions: Rattus norvegicus, Mast cell, 2 × 10^−5 M, rat peritoneal mast cells, read-out: Percentage Inhibition of Histamine Release. The protocol:
as §1
The buffered salt solution (BSS) was prepared in advance (NaCl 137 mM; KCl 2.7 mM; MgCl2 1.0 mM; CaCl2 0.5 mM, NaH2PO4 0.4 mM; Glucose 5.6 mM; HEPES 10 mM). This was dispensed into test tubes and heated to 37° C., each test tube contained 4.5 ml BSS. The solvent blank was supplemented with 0.5% (v/v) dimethyl sulphoxide (DMSO) or 0.5% (v/v) distilled water (dH2O). The two positive controls were supplemented with 0.5% (v/v) dH2O/2×10^−5M disodium cromoglycate (DSCG) and 0.5% (v/v) DMSO/2×10^−5M DSCG. The test compounds' incubation tubes contained 2×10^−5M test compound/0.5% (v/v) DMSO. The basal release, maximum release and total histamine content incubation tubes contained no additions.
Female Wistar rats (200-300 g) were killed in an atmosphere of saturated CO2. Pre-warmed BSS (10 ml) was injected i.p. and the abdomen was massaged for 3 min. The BSS, with suspended mast cells and other cells, was aspirated following a mid-line incision. The aspirate was centrifuged for 5 min at 400 g and the supernatant removed. The cells were re-suspended in BSS, at 4° C., and centrifuged as before the cells were washed in this manner a total of three times. Following the final wash, the pelleted cells were stored at 4° C., for use as soon as possible.
The cells were re-suspended in 7 ml BSS. From this, 0.5 ml aliquots were transferred to each of the incubation tubes. After 10 min at 37° C. with gentle agitation, Compound 48/80 was added to a final concentration of […], in order to stimulate histamine release. The cell stimulation was stopped after 2 min by the addition of 0.5 ml ice cold BSS, the incubation tubes were transferred to an ice bath. The cell suspensions were centrifuged for 5 min at 400 g. The “total histamine content” tube was placed at 100° C. for 2 min prior to centrifugation. The supernatants were retained for histamine assay.
To 2 ml of supernatant from each tube was added 0.4 ml of 1M NaOH and 0.1 ml oPT (1% (w/v) in methanol). This was incubated at room temperature for 4 min. The reaction was stopped by the addition of 0.2 ml of 3M HCl. The supernatant from each incubation tube was assayed in duplicate and run simultaneously with a standard curve in the range 0-1000 ng/ml. The presence of the fluorescent product of the reaction was measured using a Shimazu RF-1501 spectrofluorophotometer set at λex=360 nm, λem=450 nm.
Each drug was tested on at least five animals (n=5). The results were expressed as a percentage of maximum, compound 48/80 induced, histamine release in the solvent blank sample. Each drug was compared to DSCG on the same tissues. The basal histamine release in untreated cells was noted, expressed as a percentage of the total histamine content of the cells in suspension. […]

For the molecule `CC(=O)N(C1Cc2ccccc2C1)C1CC(=O)c2ccccc21` (stereo not shown) [Compound 6C11, N-2-Indanyl-N-3-indan-1-onylethanamide], the inhibition at 3 µM in the assay with ileum (3 × 10^−6 M) was 8%. In addition, the inhibition at 10 µM with ileum (10^−5 M) is 12.5%. Besides, the “percentage increase in ear thickness (Mean %)” value with mouse ear oedema was found to be 26.0%. The inhibition at 20 µM with mast cells was 4.26%.

The record behind these values is US6423752B1, “Indane dimer compounds with smooth muscle relaxing and/or mast cell stabilizing and/or anti-inflammatory activity” (Venantius Limited, priority 1995, dated 2002).
